Results: publication PMC3479135, “Crystal Structures of Bovine CD1d Reveal Altered αGalCer Presentation and a Restricted A’ Pocket Unable to Bind Long-Chain Glycolipids” (PLoS ONE, 2012)

Biological target: T1, boCD1d (bovine CD1d ectodomain with boβ2M) (Bos taurus, UniProt A1L565)
T1 construct: heavy-chain ectodomain (α1-α3), endogenous leader replaced by boCD1b3 leader, C-terminal hexa-His tag, no Fc; co-expressed with bovine β2m in baculovirus/insect cells; non-covalent heterodimer; N-glycosylated at Asn20 and Asn42; with Beta-2-microglobulin
T1 sequence (A1L565 129-405): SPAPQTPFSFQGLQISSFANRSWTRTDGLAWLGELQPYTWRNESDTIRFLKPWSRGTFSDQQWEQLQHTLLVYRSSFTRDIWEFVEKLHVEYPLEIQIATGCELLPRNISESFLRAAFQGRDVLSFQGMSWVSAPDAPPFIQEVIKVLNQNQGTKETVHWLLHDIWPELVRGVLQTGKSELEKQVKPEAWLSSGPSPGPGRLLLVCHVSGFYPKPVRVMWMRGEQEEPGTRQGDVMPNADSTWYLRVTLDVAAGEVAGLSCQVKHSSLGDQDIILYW
T1 sequence (P01888 21-118 partner): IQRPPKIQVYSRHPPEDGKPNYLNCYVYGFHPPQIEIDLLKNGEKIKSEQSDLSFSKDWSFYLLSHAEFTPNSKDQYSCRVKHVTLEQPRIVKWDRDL
Test: X-ray crystal structure, […] Å; native IEF gel shift
Type: binding
Conditions: crystallised in 20% PEG 3350, 0.2 M sodium formate; IEF loading overnight at room temperature, 100 mM Tris-HCl pH 7, no Tween 20; A' and F' pockets

CCCCCCCCCCCCC/C=C/[C@@H](O)[C@H](CO[C@@H]1O[C@H](COS(=O)(=O)O)[C@H](O)[C@H](OS(=O)(=O)O)[C@H]1O)NC(=O)CCCCCCCCCCC [compound 2, C12∶0-di-sulfatide]
X-ray crystal structure, 2.9 Å; native IEF gel shift: we crystallized boCD1d in complex with synthetic C12∶0-di-sulfatide (di-SLF)
